In US9505728B2, “Triazolone compounds and uses thereof” (INCEPTION 2, INC., priority 2012, dated 2016):
Like-named read-outs stand apart in the source and are kept apart here.

Legend:
Human PPARα = molecular target: T1, Human PPARα (Homo sapiens, UniProt Q07869); experiment: Human PPARα Reporter Assay (luciferase); format: cell-based
T1 construct: host or cells: proprietary non-human mammalian cells
T1 sequence (Q07869 1-468): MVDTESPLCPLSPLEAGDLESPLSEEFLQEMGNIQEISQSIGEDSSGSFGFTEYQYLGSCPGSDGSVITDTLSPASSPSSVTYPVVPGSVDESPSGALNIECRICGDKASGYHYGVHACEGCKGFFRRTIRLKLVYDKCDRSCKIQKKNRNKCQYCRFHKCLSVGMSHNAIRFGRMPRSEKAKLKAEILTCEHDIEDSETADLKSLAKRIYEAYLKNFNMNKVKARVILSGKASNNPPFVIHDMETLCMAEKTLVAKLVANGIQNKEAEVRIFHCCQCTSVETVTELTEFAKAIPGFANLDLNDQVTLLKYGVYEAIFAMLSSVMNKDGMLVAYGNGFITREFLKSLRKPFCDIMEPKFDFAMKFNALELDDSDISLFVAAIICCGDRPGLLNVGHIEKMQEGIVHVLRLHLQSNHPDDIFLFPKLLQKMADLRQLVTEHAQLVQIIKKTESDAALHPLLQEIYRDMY
In short: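 Agonist or antagonist activity read as luciferase light from engineered reporter cells carrying human PPARα and a responsive reporter gene. Cells got compound immediately on dispensing, incubated overnight, then treatment media swapped for luciferase detection reagent.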

Estrogen Receptor β = molecular target: T2, Estrogen Receptor β (Homo sapiens, UniProt Q92731); experiment: Target selectivity counterscreen, Estrogen Receptor β reporter assay; format: cell-based; settings: receptor agonist at ~EC80
T2 construct: host or cells: engineered reporter cells of the kit
T2 sequence (Q92731 whole entry): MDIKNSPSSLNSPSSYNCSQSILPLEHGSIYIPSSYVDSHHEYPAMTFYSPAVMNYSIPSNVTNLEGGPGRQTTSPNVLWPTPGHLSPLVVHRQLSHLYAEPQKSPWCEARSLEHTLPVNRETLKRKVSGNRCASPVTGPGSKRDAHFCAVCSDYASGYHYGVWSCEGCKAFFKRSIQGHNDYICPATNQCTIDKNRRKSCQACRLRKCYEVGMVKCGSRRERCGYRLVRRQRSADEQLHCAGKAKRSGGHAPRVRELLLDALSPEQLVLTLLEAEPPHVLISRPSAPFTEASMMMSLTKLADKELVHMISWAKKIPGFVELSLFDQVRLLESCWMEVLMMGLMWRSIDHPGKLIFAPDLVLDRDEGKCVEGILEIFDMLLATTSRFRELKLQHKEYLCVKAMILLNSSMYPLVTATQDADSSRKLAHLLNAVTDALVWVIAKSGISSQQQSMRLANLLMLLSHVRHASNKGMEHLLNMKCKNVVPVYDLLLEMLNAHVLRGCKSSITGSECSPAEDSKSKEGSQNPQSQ
Procedure: Target Selectivity Assays
To determine species selectivity, a Mouse PPARα Reporter Assay System was used (Indigo Biosciences, Cat. #M00111). Activity of test compounds to antagonize or agonize other isoforms of human PPAR, for example β/δ and γ, were assessed using the corresponding kits from Indigo Biosciences (Cat. #IB00121 and #IB00101, respectively). In addition to PPAR activity, compounds were also screened for activity against other nuclear hormone receptors including Estrogen Receptor β, Glucocorticoid Receptor and Thyroid Receptor β using commercially available kits (Indigo Biosciences, Cat. #IB00411, IB00201 and IB01101, respectively). Each assay system from Indigo Biosciences uses technology analogous to the human PPARα kit, with the variance being that the cells used for each assay were engineered to over-express the receptor of interest. In addition, the appropriate receptor agonist (included with each kit) was used at ˜EC80 for assays in which antagonist potency was being assessed.

CCn1c(CCCc2ccc(-c3ccc(NS(=O)(=O)c4ccccc4)cn3)cc2)nn(Cc2ccc(C(C)(C)C)cc2)c1=O [Example 10, N-(6-(4-(3-(1-(4-(tert-Butyl)benzyl)-4-ethyl-5-oxo-4,5-dihydro-1H-1,2,4-triazol-3-yl)propyl)phenyl)pyridin-3-yl)benzenesulfonamide]
IC50 (Human PPARα; counterscreen table, antagonist potency, read-out: PPAR alpha IC50): 67 nM | IC50 (Human PPARα; human PPARα reporter cells, overnight incubation, antagonism, read-out: Luciferase IC50): 67 nM | IC50 (Estrogen Receptor β): 11400 nM
